{"source": "patent US6632630B2", "about": "“Monooxygenase assays” (Aclara Biosciences, Inc., priority 2000, dated 2003)", "assay": "Solubility in water", "assay_type": "physicochemical", "data": [{"compound": "O=c1ccc2nc3ccc(OCc4ccccc4)cc3oc-2c1", "note": "[7-BR, 7-benzyloxyresorufin]", "values": [{"measurement": "solubility in water", "value": "very limited solubility"}]}]}
